Results taken from patent publication US12384780B2, “PARP1 inhibitors and uses thereof” (XinThera, Inc., priority 2022, dated 2025).

Experiments:
[1] = target: T1, PARP2 (Homo sapiens, UniProt Q9UGN5); test: Biochemical fluorescent polarization (FP) assay, displacement of PARPi-FL, PARP2; assay type: binding; conditions: 20 nM protein, 3 nM PARPi-FL, 4 h at room temperature; read-out: FP PARP2 pIC50 (converted)
T1 construct: made in house
Method: (§1) Compounds were characterized using an assay measuring the displacement of a commercially available fluorescently labeled PARP 1/2 inhibitor (PARPi-FL, Tocris Biosciences, #6461) as exemplified in assays performed in WO2014/064149 and WO2021/013735A1. The assay was performed utilizing the following method: Compounds were dissolved in DMSO an Echo550 liquid handler was utilized to make serial dilations in the desired concentration range in Optiplate-384F plates. 100% DMSO was used for the high (with protein) and low (without protein) control samples. 20 nL of compound or DMSO alone was added to individual assay plate wells. PARP1 and PARP2 protein were expressed, purified, and diluted in assay buffer containing 50 mM Tris pH 8.0, 0.001% Triton X-100, 10 mM MgCl2, 150 mM NaCl to a final concentration of 20 nM. The PARPi-FL was then added at a final concentration of 3 nM. The assay plate was centrifuged at 1000 rpm for 1 min and incubated for 4 h at room temperature. […] [formula]

[2] = system: MDA-MB-436 (mutated BRCA1) cells; test: Cell growth inhibition assay (CellTiter-Glo), MDA-MB-436; assay type: cell-based; conditions: Homo sapiens, MDA-MB-436, 168 h, 500 cells/well, 7 days, CellTiter Glo 2.0; read-out: MDA-MB-436 pEC50 (converted)
Method: (§2) Cell proliferation was measured through the cell viability assay using DLD-1 BRCA2(−/−) and parental isogenic pair and MDA-MB-436 (mutated BRCA1) cell lines. The CellTiter-Glo (CTG) based cell viability assay is designed to determine the number of viable cells in the culture because of compound effect, by quantifying ATP, which indicates the presence of metabolically active cells.
(§3) DLD-1 BRCA2(−/−) and parental isogenic pair were cultured in RPMI 1640 supplemented with […] (FBS), and […] cells were cultured in DMEM supplemented with 10% FBS. Both were cultured at 37° C. with […]. Invention compounds were distributed to the 384 well plate (Corning, 3764) using Echo acoustic liquid handler to form a 1:3 serially diluted final concentration with top dose of 10 or 30 μM. The cells were seeded into the plate in the density of 50 cells/well (DLD-1 parental), 200 cells/well (DLD-1 BRCA2−/−), or 500 cells/well (MDA-MB-436). After a short spun, the cells were cultured in a well moisturized incubator at 37° C. with 5% CO2 for 7 days without disturbance. The cell viability was measured by CellTiter Glo 2.0 assay kit (Promega, G9243), and growth inhibition rate was calculated and plotted against final compound concentration, and the data were fitted in Xfit to generate IC50 values.

[3] = target: T2, PARP1 (Homo sapiens, UniProt P09874); test: Biochemical fluorescent polarization (FP) assay, displacement of PARPi-FL, PARP1; assay type: binding; conditions: 20 nM protein, 3 nM PARPi-FL, 4 h at room temperature; for IC50: read-out: FP PARP1 pIC50 (converted)
T2 construct: made in house
Method: as §1

[4] = system: DLD-1 BRCA2(−/−) cells; test: Cell growth inhibition assay (CellTiter-Glo), DLD-1 BRCA2(−/−); assay type: cell-based; conditions: Homo sapiens, DLD-1, 168 h; 200 cells/well, 7 days, CellTiter Glo 2.0; read-out: DLD-1 BRCA2(−/−) pEC50 (converted)
Method: as §2, §3

T2 sequence (P09874 whole entry): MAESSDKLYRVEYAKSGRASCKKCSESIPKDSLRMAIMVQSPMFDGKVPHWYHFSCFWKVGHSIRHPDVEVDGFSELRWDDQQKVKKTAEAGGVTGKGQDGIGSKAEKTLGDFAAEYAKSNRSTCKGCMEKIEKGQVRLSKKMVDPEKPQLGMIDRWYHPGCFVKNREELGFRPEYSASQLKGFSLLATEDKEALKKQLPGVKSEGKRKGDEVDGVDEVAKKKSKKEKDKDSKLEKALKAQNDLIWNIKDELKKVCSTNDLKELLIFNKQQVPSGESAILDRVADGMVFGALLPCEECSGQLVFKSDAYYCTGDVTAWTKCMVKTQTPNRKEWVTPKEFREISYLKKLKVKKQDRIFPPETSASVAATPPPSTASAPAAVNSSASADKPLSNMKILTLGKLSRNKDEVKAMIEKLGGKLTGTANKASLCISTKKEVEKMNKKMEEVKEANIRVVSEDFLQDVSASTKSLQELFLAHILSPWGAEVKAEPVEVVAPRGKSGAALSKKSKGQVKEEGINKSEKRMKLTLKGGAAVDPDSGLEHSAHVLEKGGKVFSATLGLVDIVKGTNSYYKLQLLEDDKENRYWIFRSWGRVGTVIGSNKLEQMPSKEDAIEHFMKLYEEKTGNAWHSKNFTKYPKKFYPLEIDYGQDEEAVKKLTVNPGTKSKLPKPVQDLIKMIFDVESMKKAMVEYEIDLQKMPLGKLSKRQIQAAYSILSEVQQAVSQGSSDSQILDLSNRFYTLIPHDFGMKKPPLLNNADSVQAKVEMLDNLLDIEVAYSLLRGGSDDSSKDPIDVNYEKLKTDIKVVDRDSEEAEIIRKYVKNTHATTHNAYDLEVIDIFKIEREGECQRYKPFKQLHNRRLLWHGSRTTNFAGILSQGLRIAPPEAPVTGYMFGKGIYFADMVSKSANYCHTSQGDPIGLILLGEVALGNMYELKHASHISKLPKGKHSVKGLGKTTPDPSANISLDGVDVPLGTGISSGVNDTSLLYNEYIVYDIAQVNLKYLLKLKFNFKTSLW
T1 sequence (Q9UGN5 whole entry): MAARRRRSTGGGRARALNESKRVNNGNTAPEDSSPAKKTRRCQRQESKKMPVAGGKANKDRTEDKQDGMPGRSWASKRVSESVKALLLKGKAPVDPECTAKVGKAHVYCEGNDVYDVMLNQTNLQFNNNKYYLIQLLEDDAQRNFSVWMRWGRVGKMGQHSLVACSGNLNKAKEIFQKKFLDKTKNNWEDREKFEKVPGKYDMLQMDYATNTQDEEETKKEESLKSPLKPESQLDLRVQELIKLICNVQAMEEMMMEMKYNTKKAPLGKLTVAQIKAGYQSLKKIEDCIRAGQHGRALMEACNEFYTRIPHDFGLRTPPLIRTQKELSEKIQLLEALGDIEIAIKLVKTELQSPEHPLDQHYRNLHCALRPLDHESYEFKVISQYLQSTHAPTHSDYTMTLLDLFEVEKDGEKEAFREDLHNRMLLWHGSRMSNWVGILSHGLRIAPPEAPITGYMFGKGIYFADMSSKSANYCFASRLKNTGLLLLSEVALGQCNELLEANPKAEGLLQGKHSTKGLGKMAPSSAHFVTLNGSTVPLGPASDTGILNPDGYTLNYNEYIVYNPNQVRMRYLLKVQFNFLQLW

SMILES	IC50 [1] [nM]	EC50 [2] [nM]	IC50 [3] [nM]	EC50 [4] [nM]	FP PARP1 pIC50 [3]
Cc1cc2ncc(CN3CCN(c4ccc(C#N)cc4F)CC3)cc2[nH]c1=O [Example 18]	> 100000	2.51	5.01	3.16	
CCc1cc2ncc(CN3CCN(c4ccc(C#N)nc4)[C@@H]4C[C@@H]43)cc2[nH]c1=O (single isomer, unassigned) [Example 15]	10000	5.01	5.01	7.94	
Cc1cc2ncc([C@@H](C)N3CCN(c4ccc(C#N)cn4)CC3)cc2[nH]c1=O (single isomer, unassigned) [Example 33]	6310	2.51	2.51	3.16	
Cc1cc2ncc(CN3CCN(c4ccc(C#N)nc4Cl)CC3)cc2[nH]c1=O [Example 55]	> 100000	1	7.94	1.26	
Cc1cc2ncc([C@H](C)N3CCN(c4ccc(C#N)cn4)[C@H](C)C3)cc2[nH]c1=O (single isomer, unassigned) [Example 29]	> 100000	79.4	6.31	63.1	
Cc1cc2ncc(CN3CCN(c4cc(F)c(F)cn4)CC3)cc2[nH]c1=O [Example 58]	15800	7.94	12.6	7.94	
Cc1c(Cl)c(=O)[nH]c2cc(CN3CCN(c4ccc(C#N)cn4)CC3)cnc12 [Example 36, 6-{4-[(7-chloro-8-methyl-6-oxo-5H-1,5-naphthyridin-3-yl)methyl]piperazin-1-yl}pyridine-3-carbonitrile]	2000	1	5.01	1.26	
CCc1cc2ncc(CN3CCN(c4ccc(C#N)cc4)CC3)cc2[nH]c1=O [Example 9]	1580	0.501	6.31	0.501	
C[C@@H]1CN(Cc2cnc3cc(C4CC4)c(=O)[nH]c3c2)CCN1c1ccc(F)cn1 [Example 22]	12600	158	7.94	126	
CCc1nc2c(F)cc(CN3CCN(c4ccc(C#N)cn4)CC3)cc2[nH]c1=O [Example 5, 6-(4-((2-ethyl-8-fluoro-3-oxo-3,4-dihydroquinoxalin-6-yl)methyl)piperazin-1-yl)nicotinonitrile]	> 100000	3.98		3.98	8.5
CCc1cc2ncc(CN3CCN(c4ccc(Cl)cn4)CC3)cc2[nH]c1=O [Example 8]	> 100000	3.16	15.8	5.01	
N#Cc1ccc(N2CCN(Cc3cnc4cc(Cl)c(=O)[nH]c4c3)CC2)cc1 [Example 66]	> 100000	1.58	5.01	2	
Cc1cc2ncc(CN3CCN(c4ccc(C#N)nc4)CC3)cc2[nH]c1=O [Example 11]	79400	39.8	10	20	
[2H]C([2H])(c1cnc2cc(C)c(=O)[nH]c2c1)N1CCN(c2ccc(C#N)cn2)CC1 [Example 37]	> 100000	1.58		3.16	8.5
CCc1cc2ncc(CN3CCN(c4ccc(C#N)cn4)CC3)cc2[nH]c1=O [Example 10]	5010	0.794	5.01	0.794	
Cc1c(Cl)c(=O)[nH]c2cc(CN3CCN(c4ccc(C#N)cc4)CC3)cnc12 [Example 2, 4-{4-[(7-chloro-8-methyl-6-oxo-5H-1,5-naphthyridin-3-yl)methyl]piperazin-1-yl}benzonitrile]	7940	1.26	50.1	1.58	
[2H]C([2H])(c1cnc2cc(C(F)F)c(=O)[nH]c2c1)N1CCN(c2ccc(C#N)cn2)CC1 [Example 63]	794	1.26	15.8	1.58	
Cc1nc2ccc(CN3CCN(c4ccc(C#N)cn4)CC3)cc2[nH]c1=O [Example 84]	50100	7.94	10	6.31	
Cc1cc2ncc(CN3CCN(c4ncc(C#N)cc4F)CC3)cc2[nH]c1=O [Example 30]	> 100000	> 1000	15.8	> 1000	
